From PubChem BioAssay AID1845210 (Molecular Pharmacology Branch, DTP, NCI, 2023)

Tested on: NCI-H226 complex tumor spheroids, viability
Assay: Anticancer human tumor NCI-H226 cell line growth inhibition;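 also: spheroids exposed to compound for 7 days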;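 as to viability, T/C: 100% = DMSO vehicle control viability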
Details: for IC50: curve of first compound; for viability, T/C: stronger effect = lower value
In short: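 Complex tumor spheroids combined malignant cells with endothelial cells and mesenchymal stem cells. DNA-damaging drugs and DNA repair inhibitors were tested alone and in combination, at half-log dilutions down from clinical Cmax (top 10 microM if Cmax unknown), 0.25% DMSO final.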

[1] = second compound 1 µM, first compound 0.0949 µM
[2] = second compound 1 µM, first compound 0.3 µM
[3] = second compound 1 µM, first compound 0.949 µM
[4] = second compound 1 µM, first compound 3 µM
[5] = second compound 3.16 µM, first compound 0.0949 µM
[6] = second compound 3.16 µM, first compound 0.3 µM
[7] = second compound 3.16 µM, first compound 0.949 µM
[8] = second compound 3.16 µM, first compound 3 µM
[9] = second compound 10 µM, first compound 0.0949 µM
[10] = second compound 10 µM, first compound 0.3 µM
[11] = second compound 10 µM, first compound 0.949 µM
[12] = second compound 10 µM, first compound 3 µM
[13] = second compound 31.6 µM, first compound 0.0949 µM
[14] = second compound 31.6 µM, first compound 0.3 µM
[15] = second compound 31.6 µM, first compound 0.949 µM
[16] = second compound 31.6 µM, first compound 3 µM
[17] = second compound 100 µM, first compound 0.0949 µM
[18] = second compound 100 µM, first compound 0.3 µM
[19] = second compound 100 µM, first compound 0.949 µM
[20] = second compound 100 µM, first compound 3 µM

Compound: CNCc1ccc(-c2cc(-c3nc(-c4ccc(S(=O)(=O)C(C)C)cc4)cnc3N)on2)cc1 + Cn1nnc2c(C(N)=O)ncn2c1=O
- IC50 (second compound 1 µM): 756 nM
- IC50 (second compound 3.16 µM): 717 nM
- IC50 (second compound 10 µM): 755 nM
- IC50 (second compound 31.6 µM): 1030 nM
- IC50 (second compound 100 µM): 1370 nM
- viability, T/C (second compound 1 µM, first compound 0.00949 µM): 110%
- viability, T/C (second compound 1 µM, first compound 0.03 µM): 125%
- viability, T/C [1]: 138%
- viability, T/C [2]: 140%
- viability, T/C [3]: 30.7%
- viability, T/C [4]: 0.26%
- viability, T/C (second compound 3.16 µM, first compound 0.00949 µM): 96.1%
- viability, T/C (second compound 3.16 µM, first compound 0.03 µM): 119%
- viability, T/C [5]: 127%
- viability, T/C [6]: 134%
- viability, T/C [7]: 27.6%
- viability, T/C [8]: 0.51%
- viability, T/C (second compound 10 µM, first compound 0.00949 µM): 117%
- viability, T/C (second compound 10 µM, first compound 0.03 µM): 117%
- viability, T/C [9]: 131%
- viability, T/C [10]: 128%
- viability, T/C [11]: 31.8%
- viability, T/C [12]: 0.23%
- viability, T/C (second compound 31.6 µM, first compound 0.00949 µM): 110%
- viability, T/C (second compound 31.6 µM, first compound 0.03 µM): 117%
- viability, T/C [13]: 144%
- viability, T/C [14]: 123%
- viability, T/C [15]: 53.7%
- viability, T/C [16]: 1.75%
- viability, T/C (second compound 100 µM, first compound 0.00949 µM): 119%
- viability, T/C (second compound 100 µM, first compound 0.03 µM): 125%
- viability, T/C [17]: 123%
- viability, T/C [18]: 114%
- viability, T/C [19]: 73.3%
- viability, T/C [20]: 0.35%

Compound: O=C(c1cc(Cc2n[nH]c(=O)c3ccccc23)ccc1F)N1CCN(C(=O)C2CC2)CC1 + Cn1nnc2c(C(N)=O)ncn2c1=O
- IC50 (second compound 1 µM): > 30000 nM
- IC50 (second compound 3.16 µM): > 30000 nM
- IC50 (second compound 10 µM): > 30000 nM
- IC50 (second compound 31.6 µM): > 30000 nM
- IC50 (second compound 100 µM): > 30000 nM
- viability, T/C [1]: 99.9%
- viability, T/C [2]: 99.8%
- viability, T/C [3]: 107%
- viability, T/C [4]: 104%
- viability, T/C (second compound 1 µM, first compound 9.49 µM): 99.2%
- viability, T/C (second compound 1 µM, first compound 30 µM): 86.4%
- viability, T/C [5]: 105%
- viability, T/C [6]: 96.7%
- viability, T/C [7]: 105%
- viability, T/C [8]: 95.4%
- viability, T/C (second compound 3.16 µM, first compound 9.49 µM): 81.9%
- viability, T/C (second compound 3.16 µM, first compound 30 µM): 80.3%
- viability, T/C [9]: 112%
- viability, T/C [10]: 104%
- viability, T/C [11]: 95.1%
- viability, T/C [12]: 101%
- viability, T/C (second compound 10 µM, first compound 9.49 µM): 84.6%
- viability, T/C (second compound 10 µM, first compound 30 µM): 77.3%
- viability, T/C [13]: 98.3%
- viability, T/C [14]: 101%
- viability, T/C [15]: 110%
- viability, T/C [16]: 95.1%
- viability, T/C (second compound 31.6 µM, first compound 9.49 µM): 84.6%
- viability, T/C (second compound 31.6 µM, first compound 30 µM): 82%
- viability, T/C [17]: 114%
- viability, T/C [18]: 113%
- viability, T/C [19]: 125%
- viability, T/C [20]: 99.3%
- viability, T/C (second compound 100 µM, first compound 9.49 µM): 97.8%
- viability, T/C (second compound 100 µM, first compound 30 µM): 80.5%

Compound: Cc1sc2c(c1C)C(c1ccc(Cl)cc1)=NC(CC(=O)Nc1ccc(O)cc1)c1nnc(C)n1-2 (stereo not given) + COc1cc2c(cc1O)CCNC21CSC2c3c(OC(C)=O)c(C)c4c(c3C(COC1=O)N1C(O)C3Cc5cc(C)c(OC)c(O)c5C(C21)N3C)OCO4
- IC50 (second compound 30 pM): > 3000 nM
- IC50 (second compound 94.9 pM): > 3000 nM
- IC50 (second compound 0.0003 µM): > 3000 nM
- IC50 (second compound 0.000949 µM): 257 nM
- IC50 (second compound 0.003 µM): < 9.49 nM
- viability, T/C (second compound 30 pM, first compound 0.00949 µM): 97%
- viability, T/C (second compound 30 pM, first compound 0.03 µM): 93.1%
- viability, T/C (second compound 30 pM, first compound 0.0949 µM): 84%
- viability, T/C (second compound 30 pM, first compound 0.3 µM): 84.9%
- viability, T/C (second compound 30 pM, first compound 0.949 µM): 68%
- viability, T/C (second compound 30 pM, first compound 3 µM): 64.8%
- viability, T/C (second compound 94.9 pM, first compound 0.00949 µM): 105%
- viability, T/C (second compound 94.9 pM, first compound 0.03 µM): 91.8%
- viability, T/C (second compound 94.9 pM, first compound 0.0949 µM): 87.1%
- viability, T/C (second compound 94.9 pM, first compound 0.3 µM): 77.6%
- viability, T/C (second compound 94.9 pM, first compound 0.949 µM): 73.9%
- viability, T/C (second compound 94.9 pM, first compound 3 µM): 66%
- viability, T/C (second compound 0.0003 µM, first compound 0.00949 µM): 101%
- viability, T/C (second compound 0.0003 µM, first compound 0.03 µM): 84.7%
- viability, T/C (second compound 0.0003 µM, first compound 0.0949 µM): 75.2%
- viability, T/C (second compound 0.0003 µM, first compound 0.3 µM): 75.9%
- viability, T/C (second compound 0.0003 µM, first compound 0.949 µM): 72.6%
- viability, T/C (second compound 0.0003 µM, first compound 3 µM): 48.7%
- viability, T/C (second compound 0.000949 µM, first compound 0.00949 µM): 138%
- viability, T/C (second compound 0.000949 µM, first compound 0.03 µM): 78.6%
- viability, T/C (second compound 0.000949 µM, first compound 0.0949 µM): 68.2%
- viability, T/C (second compound 0.000949 µM, first compound 0.3 µM): 67.1%
- viability, T/C (second compound 0.000949 µM, first compound 0.949 µM): 19.7%
- viability, T/C (second compound 0.000949 µM, first compound 3 µM): 7.53%
- viability, T/C (second compound 0.003 µM, first compound 0.00949 µM): 2.09%
- viability, T/C (second compound 0.003 µM, first compound 0.03 µM): 0.99%
- viability, T/C (second compound 0.003 µM, first compound 0.0949 µM): 0.74%
- viability, T/C (second compound 0.003 µM, first compound 0.3 µM): 0.28%
- viability, T/C (second compound 0.003 µM, first compound 0.949 µM): 0.28%
- viability, T/C (second compound 0.003 µM, first compound 3 µM): 0.51%

Compound: Cc1cc(C)c(CNC(=O)c2cc(-c3ccc(CN4CCOCC4)cc3)cc3c2cnn3C2CCCC2)c(=O)[nH]1 + Cn1nnc2c(C(N)=O)ncn2c1=O
- IC50 (second compound 1 µM): > 10000 nM
- IC50 (second compound 3.16 µM): > 10000 nM
- IC50 (second compound 10 µM): > 10000 nM
- IC50 (second compound 31.6 µM): > 10000 nM
- IC50 (second compound 100 µM): > 10000 nM
- viability, T/C (second compound 1 µM, first compound 0.0316 µM): 113%
- viability, T/C (second compound 1 µM, first compound 0.1 µM): 125%
- viability, T/C (second compound 1 µM, first compound 0.316 µM): 106%
- viability, T/C (second compound 1 µM, first compound 1 µM): 115%
- viability, T/C (second compound 1 µM, first compound 3.16 µM): 131%
- viability, T/C (second compound 1 µM, first compound 10 µM): 102%
- viability, T/C (second compound 3.16 µM, first compound 0.0316 µM): 125%
- viability, T/C (second compound 3.16 µM, first compound 0.1 µM): 135%
- viability, T/C (second compound 3.16 µM, first compound 0.316 µM): 113%
- viability, T/C (second compound 3.16 µM, first compound 1 µM): 113%
- viability, T/C (second compound 3.16 µM, first compound 3.16 µM): 97.4%
- viability, T/C (second compound 3.16 µM, first compound 10 µM): 119%
- viability, T/C (second compound 10 µM, first compound 0.0316 µM): 128%
- viability, T/C (second compound 10 µM, first compound 0.1 µM): 136%
- viability, T/C (second compound 10 µM, first compound 0.316 µM): 122%
- viability, T/C (second compound 10 µM, first compound 1 µM): 109%
- viability, T/C (second compound 10 µM, first compound 3.16 µM): 111%
- viability, T/C (second compound 10 µM, first compound 10 µM): 125%
- viability, T/C (second compound 31.6 µM, first compound 0.0316 µM): 123%
- viability, T/C (second compound 31.6 µM, first compound 0.1 µM): 108%
- viability, T/C (second compound 31.6 µM, first compound 0.316 µM): 116%
- viability, T/C (second compound 31.6 µM, first compound 1 µM): 109%
- viability, T/C (second compound 31.6 µM, first compound 3.16 µM): 103%
- viability, T/C (second compound 31.6 µM, first compound 10 µM): 144%
- viability, T/C (second compound 100 µM, first compound 0.0316 µM): 108%
- viability, T/C (second compound 100 µM, first compound 0.1 µM): 114%
- viability, T/C (second compound 100 µM, first compound 0.316 µM): 122%
- viability, T/C (second compound 100 µM, first compound 1 µM): 130%
- viability, T/C (second compound 100 µM, first compound 3.16 µM): 110%
- viability, T/C (second compound 100 µM, first compound 10 µM): 132%
